Literature values as cited in article PMC4780677 (Annual reports in medicinal chemistry, 2012).

System: mGlu5 receptor
Settings: cell lines; mGlu5 receptor ago-PAM vs pure PAM

Row | Structure (SMILES) | intrinsic agonist activity
1 | O=C(NC1CCC1)c1ccc(C#Cc2cccc(F)c2)nc1 [VU0360172] | maximal intrinsic agonist activity
2 | O=C(c1ccc(C#Cc2cccc(F)c2)nc1)N1CCC(O)CC1 [VU0361747] | devoid of intrinsic agonist activity
